This is an account of results in patent US4216216A, “Aromatic piperazinyl substituted dihydrouracils” (Hoechst Aktiengesellschaft, priority 1977, dated 1980).

The subject of data set [1] is 5-Hydroxy-L-tryptophan. The data set can be described thus: Test c: 5-Hydroxy-L-tryptophan antagonism in mice (defecation). To be noted: 5-hydroxy-L-tryptophan 40 mg/kg i.p. Format: in vivo. The procedure: (§1) For determination of the serotonin-antagonistic activity the following pharmacological tests were used: Test a: (Test according to Konzett and Rossler (Arch. exp. Path. Pharmak. 195 (1940) 71). Domestic albino guinea pigs were anaesthetised with 1.25 g/kg of urethane intraperitoneally (i.p.). Bronchial resistance was recorded in the open thorax by a recorder ("bronchotransducer") manufactured by the firm Ugo Basile (Milan); respiratory frequency was kept constant by artificial respiration at a frequency of 58 strokes/minute, the inflation pressure was 9 cm H2 O column. To induce bronchospasms, 5 to […] of serotonin (as serotonin-creatinine sulphate) were injected into one of the jugular veins every 15 minutes in a volume of 0.1 ml/kg body weight. The test substances were administered in a volume of 1 ml/kg either intravenously within 30 seconds, 2 minutes before generation of the serotonin spasm or intraduodenally or orally by oesphageal tube 15 minutes before the spasm. […] The results are given in Table I. Test b: (Serotonin antagonism in the isolated uterus of rats according to Robert A. Turner: Screening Methods in Pharmacology, Academic Press 1965 (New York and London)) Female Sprague-Dawley rats with a weight of 180 to 240 g were given intraperitoneally 2 mg of Oestromon (Merck, Darmstadt) 24 hours before extraction of the uterus in order to induce oestrus. The organ bath was kept at 22° C. and contained a Tyrode solution having a specific composition. The test substance was added to the bath in aqueous solution with a total volume of 0.1 ml. The serotonin concentration administered was 10^-8 g/ml bath. The ED50 value corresponded to the dose by which a serotonin spasm is inhibited by 50%. Test c: (5-Hydroxy-L-tryptophan antagonism in mice). A single administration of 5-hydroxy-L-tryptophan causes in mice a strong increase in defecation due to the increased biosynthesis of serotonin from exogenically supplied amino acids. This defecation effect can be reduced by serotonin antagonists. The test substances were administered orally 45 minutes before administration of the tryptophan. The tryptophan dose was 40 mg/kg i.p.
Evaluation was carried out 1 hour after administration of the preparation by measurement of the quantity of faeces produced. A reduction in this quantity by not more than 25% of the control is indicated, according to the result, by 0 or (+), from 25 to 50% by +, from 50 to 75% by ++ and over 75% +++ (see Table I).

Data set [2] relates to serotonin spasm (bronchospasm). As to the kind of experiment: Test a: inhibition of serotonin-induced bronchospasm (Konzett and Rossler). Format: in vivo. To be noted: Cavia porcellus, guinea pigs. As to the method:
as §1

A short description of data set [3]: Acute toxicity, mice. The settings on record: mouse, in vivo, mortality within 7 days. An excerpt:
(§2) Table III sets out for some compounds, the toxicity determined in mice and rats after intraperitoneal and intravenous administration over the mortality occurring within 7 days as LD50 or LD50 range.

Data set [4] concerns serotonin spasm in the isolated uterus of rats. The data set can be described thus: Test b: serotonin antagonism in the isolated uterus of rats. The class given is cell-based, rats (Sprague-Dawley). To be noted: isolated rat uterus; serotonin 10^-8 g/ml bath; 22° C.; read-out: ED50 (the source's name). The procedure: as §1
For data set [5], the system named is thrombocyte aggregation. The data set can be described thus: Thrombocyte aggregation inhibiting activity (ADP-induced, platelet-rich plasma). The class given is cell-based, beagle dogs. As to the method:
Thrombocyte aggregation was induced experimentally in platelet-rich plasm (PRP) of beagle dogs by in vitro administration of adenosine diphosphate (ADP) in a final concentration of 2.5×10^-6 and was measured by means of a universal aggregometer (manufactured by B. Braun/Melsungen). An Eppendorf Photometer recorded the change in the optical density of the plasma.
The following parameters were determined:
1. The angle, α, between the tangent at the starting point of the curve and the horizontal axis,
2. The time, Tr, from the start of rotation (aggregation) until complete disaggregation,
3. The maximum amplitude (Ma) of the aggregation curve as the difference between starting transmission and maximum transmission.

Data set [6] has as its system mice. The settings on record: i.v., Speigt and Avery, Drugs 3, 159-203 (1972), 10080 min; cited from earlier work.
Data set [7] has as its system rats. The settings on record: i.v., Speigt and Avery, Drugs 3, 159-203 (1972), 10080 min; cited from earlier work.
Data set [8] relates to serotonin. The settings on record: background statement; cited from earlier work.
Data set [9] has as its system thrombocyte aggregation. The settings on record: background statement; cited from earlier work.
Data set [10] in a line: pH value of aqueous solution. To be noted: for pH value of a 0.1% aqueous solution: 0.1% solution. The class given is physicochemical.
Data set [11] is described as follows: Acute toxicity, rats. To be noted: rat, in vivo, iv, mortality within 7 days.
From the text: as §2

[12] abbreviates: 0.25 h, i.d. (intraduodenal), 15 minutes after administration.
[13] abbreviates: iv, 2 min, i.v., 2 minutes after injection.
Setting [14] is: po, 0.25 h, p.o., 15 minutes after administration.
Setting [15] is: Canis lupus familiaris, final concentration 10^-4 g/ml, read-out: Change of Ma in %.
[16] abbreviates: final concentration 3 × 10^-5 g/ml.

In brackets after ≈: the same amount, converted by molar mass. Counter-ions that a name gives are not always drawn.

By ED50 is commonly meant the dose at which the effect has come halfway, by size or by number of responders. Read a low ED50 as greater potency. The LD50 is the dose at which mortality reaches 50%. Consider `CC1(C)CC(=O)N(CCCN2CCN(c3ccccc3)CC2)C(=S)N1` [compound 16], for which the “Strength of activity (reduction in quantity of faeces)” value in data set [1] (10 mg/kg p.o.) and in data set [1] (20 mg/kg p.o.) was “+ (from 25 to 50%)” in each case. In addition, the figures for the ED50 in data set [2] (setting [12]), in data set [2] (setting [13]) and in data set [2] (setting [14]) were 0.3 mg/kg, 0.01 to 0.03 mg/kg and roughly 0.3 mg/kg, respectively. The LD50 at 168 h fell in the range of 200 to 400 mg/kg in [3] (ip) and 40 to 63 mg/kg in data set [3] (iv). In addition, in data set [4], the IC50 fell in the range of 1 to 10 ng/mL (≈ 2.77 to 27.7 nM). In data set [5] (setting [15]), the inhibition at 100 µg/mL was found to be 42%. Also, in data set [5] (final concentration 10^-4 g/ml), the “Ma, maximum amplitude of the aggregation curve” value (from here on “Ma, maximum amplitude”) was 315. For the same compound, the “Tr, time from start of rotation (aggregation) until complete disaggregation” value (“Tr, time from start of rotation” below) in data set [5] (final concentration 10^-4 g/ml) was determined as 1.8 min. In data set [5] (final concentration 10^-4 g/ml), the “angle α between the tangent at the starting point of the curve and the horizontal axis” value (“angle α between the tangent” for short) stood at 86.3.

In the case of `CN1CCC(=C2c3ccccc3CCc3sccc32)CC1` [Pizotyline-HCl, reference compound], the LD50 in data set [6] is 43 ± 1.8 mg/kg; in [7], 17 ± 1.1 mg/kg. Also, the “Strength of activity (reduction in quantity of faeces)” value in data set [1] (20 mg/kg p.o.) is recorded as “+ (from 25 to 50%)”. Also, the values for the ED50 in data set [2] (setting [12]), in [2] (setting [13]) and in data set [2] (setting [14]) were 0.01 to 0.1 mg/kg, 0.01 to 0.05 mg/kg and 0.5 to 1 mg/kg, respectively. Besides, the IC50 in [4] was 1 to 10 ng/mL.

With `CN(C)CCCOC1(Cc2ccccc2)CCCCCC1` [Bencyclane], the serotonin antagonism result in [8] is “weak serotonin antagonism”. Further, the “inhibition of thrombocyte aggregation” value in [9] was “inhibiting thrombocyte aggregation”.

Turning to `CN1C(=O)N(CCCN2CCN(c3ccccc3)CC2)C(=O)CC1(C)C` [compound 26], the “pH value of a 0.1% aqueous solution” value in [10] is reported as “around 3.0”.

Turning to `CN(C)CCCOC1(Cc2ccccc2)CCCCCC1` [Fludilate, reference compound], in data set [5] (final concentration 10^-4 g/ml), the “Change of Ma in %” value is given as -34%; the “Ma, maximum amplitude” value amounted to 324; the “Tr, time from start of rotation” value is 2.6 min; the “angle α between the tangent” value came to 85.2.

As for `CC1(C)CC(=O)N(CCCN2CCN(c3ccc(F)cc3)CC2)C(=O)N1` [compound 11], the 50% effective dose (ED50) in data set [2] (setting [13]) lay in the range of 0.01 to 0.03 mg/kg. Besides, the LD50 at 168 h in data set [3] (ip) lay within 100 to 300 mg/kg.

For the compound `CC1(C)CC(=O)N(CCN2CCN(c3ccccc3)CC2)C(=S)N1` [compound 18], the “Strength of activity (reduction in quantity of faeces)” value in [1] (10 mg/kg p.o.) and in data set [1] (20 mg/kg p.o.) was “++ (from 50 to 75%)” each time. The ED50 in [2] (setting [12]) is roughly 0.03 mg/kg; in data set [2] (setting [13]), 0.001 to 0.003 mg/kg. The LD50 at 168 h in data set [3] (iv) was 100 to 150 mg/kg; in data set [11], 66 mg/kg. In addition, the IC50 in data set [4] lay in the range of 0.1 to 1 ng/mL (≈ 0.289 to 2.89 nM). Moreover, the “pH value of a 0.1% aqueous solution” value in data set [10] was “about 4.3”. In addition, the inhibition at 100 µg/mL in data set [5] (setting [15]) was 19%. For the same compound, the “Ma, maximum amplitude” value in [5] (final concentration 10^-4 g/ml) worked out at 328. In addition, the “Tr, time from start of rotation” value in data set [5] (final concentration 10^-4 g/ml) is reported as 3.0 min. Further, the “angle α between the tangent” value in data set [5] (final concentration 10^-4 g/ml) is 85.8.

With `CN1CCC(=C2c3ccccc3CCc3sccc32)CC1` [Pizotyline], in [8], the serotonin antagonism result is “serotonin-antagonistic activities”.

In the case of `CC1NC(=O)N(CCCN2CCN(c3ccccc3)CC2)C(=O)C1C` (stereo not shown) [compound 17], the “Strength of activity (reduction in quantity of faeces)” value is given as “+ (from 25 to 50%)” in data set [1] (10 mg/kg p.o.) and “++ (from 50 to 75%)” in [1] (20 mg/kg p.o.). The values for the ED50 in [2] (setting [12]) and in data set [2] (setting [13]) were 0.01 to 0.03 mg/kg and 0.001 to 0.003 mg/kg, respectively. The LD50 at 168 h in data set [3] (iv) was 54 mg/kg; in [11], 25 to 40 mg/kg. Also, the IC50 in data set [4] was 1 to 10 ng/mL (≈ 2.9 to 29 nM). Besides, the inhibition at 100 µg/mL in [5] (setting [15]) is 18%. In data set [5] (final concentration 10^-4 g/ml), the “Ma, maximum amplitude” value came to 344. Also, the “Tr, time from start of rotation” value in data set [5] (final concentration 10^-4 g/ml) turned out to be 2.3 min. Besides, the “angle α between the tangent” value in data set [5] (final concentration 10^-4 g/ml) is given as 85.9.

In the case of `CC1(C)CC(=O)N(CCN2CCN(c3ccccc3)CC2)C(=S)N1` [dihydrochloride hydrate], the “pH value of a 10% aqueous solution” value in data set [10] (10% aqueous solution) is on record as “around 1.8”.

Regarding `CC1(C)CC(=O)N(CCCN2CCN(c3ccccc3)CC2)C(=O)N1` [compound 9], the results for the median effective dose (ED50) in data set [2] (setting [12]), in [2] (setting [13]) and in data set [2] (setting [14]) were 0.01 to 0.03 mg/kg, 0.003 to 0.01 mg/kg and 0.1 to 0.3 mg/kg, respectively. For the same compound, the LD50 at 168 h in data set [3] (ip, for the base) is 100 to 300 mg/kg; in data set [3] (iv), 83 mg/kg; in [11] (for the base), 60 mg/kg. Moreover, the IC50 in data set [4] lay within 1 to 10 ng/mL (≈ 2.9 to 29 nM). The inhibition at 30 µg/mL in [5] (Canis lupus familiaris, final concentration 3 × 10^-5 g/ml, read-out: Change of Ma in %) came out at 13%. Further, the inhibition at 100 µg/mL in [5] (setting [15]) was found to be 20%. In data set [5] (Canis lupus familiaris, final concentration 10^-5 g/ml, read-out: Change of Ma in %), the inhibition at 10 µg/mL turned out to be 11%. Also, the “Ma, maximum amplitude” value in data set [5] (setting [16]) worked out at 523; in [5] (final concentration 10^-4 g/ml), 483; in [5] (final concentration 10^-5 g/ml), 535. Also, the entries for the “Tr, time from start of rotation” value in [5] (setting [16]), in data set [5] (final concentration 10^-4 g/ml) and in data set [5] (final concentration 10^-5 g/ml) were 4.3 min, 4.0 min and 4.6 min, respectively. For the same compound, the “angle α between the tangent” value in data set [5] (setting [16]) worked out at 86.6; in data set [5] (final concentration 10^-4 g/ml), 87.0; in data set [5] (final concentration 10^-5 g/ml) it was 86.5.

As to `CC[C@@H](CO)NC(=O)[C@@H]1C=C2c3cccc4c3c(cn4C)C[C@H]2N(C)C1` [methysergide], the serotonin antagonism entry in data set [8] is reported as “serotonin-antagonistic activities”.
